Data on one compound can be found in ChEMBL document CHEMBL3880411, “Multikinase inhibitors for use in the treatment of cancer” (2009).

The target in test [1] is Tyrosine-protein kinase Fyn (Homo sapiens) (UniProt P06241). The test is described as follows: Inhibition of human Fyn assessed as remaining activity at 1 uM after 40 mins in presence of [gamma33P-ATP] by scintillation counting.
Test [2] addresses BDNF/NT-3 growth factors receptor (Homo sapiens) (UniProt Q16620). The test is described as follows: Inhibition of human TrkB assessed as remaining activity at 0.1 uM after 40 mins in presence of [gamma33P-ATP] by scintillation counting.
Test [3] is described as follows: Cytotoxicity against human MES-SA/Dx5-Rx1 cells assessed as reduction in cell viability after 96 hrs by CellTiter-Glo luminescence assay or methylene blue assay. The format is functional, cell-based.
The nature of test [4]: Antiproliferative activity against human RPMI8226 cells after 96 hrs by MTT assay. The following applies: RPMI-8226, 96 h. The format is functional, cell-based.
Test [5] is described as follows: Cytotoxicity against human PANC1 cells expressing K-ras G12D mutant assessed as reduction in cell viability after 96 hrs by CellTiter-Glo luminescence assay or methylene blue assay. The format is functional, cell-based. The following applies: PANC-1, 96 h.
Test [6] in a line: Cytotoxicity against human SW620 cells expressing K-ras G12V mutant assessed as reduction in cell viability after 96 hrs by CellTiter-Glo luminescence assay or methylene blue assay. The format is functional, cell-based. The following applies: SW-620, 96 h.
A short description of test [7]: Cytotoxicity against human SK-MEL-24 cells expressing B-RAF V600E mutant assessed as reduction in cell viability after 96 hrs by CellTiter-Glo luminescence assay or methylene blue assay. The format is functional, cell-based. The following applies: SK-MEL-24, 96 h.
The target in test [8] is Proto-oncogene tyrosine-protein kinase Src (Homo sapiens) (UniProt P12931). The test is described as follows: Inhibition of human c-Src assessed as remaining activity at 1 uM after 40 mins in presence of [gamma33P-ATP] by scintillation counting.
Chain of Proto-oncogene tyrosine-protein kinase Src (Homo sapiens) (P12931 2-536 limits assumed): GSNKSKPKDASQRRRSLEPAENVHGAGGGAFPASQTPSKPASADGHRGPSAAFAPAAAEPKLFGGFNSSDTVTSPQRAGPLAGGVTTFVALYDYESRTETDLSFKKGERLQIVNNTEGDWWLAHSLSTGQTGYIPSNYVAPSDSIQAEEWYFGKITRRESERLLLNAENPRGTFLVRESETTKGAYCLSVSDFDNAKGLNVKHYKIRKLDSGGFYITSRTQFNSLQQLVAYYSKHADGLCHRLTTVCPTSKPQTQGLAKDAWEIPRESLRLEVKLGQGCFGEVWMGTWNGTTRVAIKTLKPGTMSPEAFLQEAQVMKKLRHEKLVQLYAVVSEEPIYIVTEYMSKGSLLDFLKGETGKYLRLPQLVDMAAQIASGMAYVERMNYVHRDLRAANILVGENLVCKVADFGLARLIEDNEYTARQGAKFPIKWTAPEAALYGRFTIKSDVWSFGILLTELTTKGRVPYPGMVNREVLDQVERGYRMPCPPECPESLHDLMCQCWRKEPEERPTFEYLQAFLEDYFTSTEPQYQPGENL
Test [9] in a line: Antiproliferative activity against human RL cells after 96 hrs by MTT assay. The format is functional, cell-based.
The nature of test [10]: Cytotoxicity against human MES-SA cells assessed as reduction in cell viability after 96 hrs by CellTiter-Glo luminescence assay or methylene blue assay. The format is functional, cell-based.
For test [11], the target named is Receptor-type tyrosine-protein kinase FLT3 (Homo sapiens) (UniProt P36888). The experiment in a line: Inhibition of human Flt3 assessed as remaining activity at 1 uM after 40 mins in presence of [gamma33P-ATP] by scintillation counting.
Chain of Receptor-type tyrosine-protein kinase FLT3 (Homo sapiens) (P36888 whole entry): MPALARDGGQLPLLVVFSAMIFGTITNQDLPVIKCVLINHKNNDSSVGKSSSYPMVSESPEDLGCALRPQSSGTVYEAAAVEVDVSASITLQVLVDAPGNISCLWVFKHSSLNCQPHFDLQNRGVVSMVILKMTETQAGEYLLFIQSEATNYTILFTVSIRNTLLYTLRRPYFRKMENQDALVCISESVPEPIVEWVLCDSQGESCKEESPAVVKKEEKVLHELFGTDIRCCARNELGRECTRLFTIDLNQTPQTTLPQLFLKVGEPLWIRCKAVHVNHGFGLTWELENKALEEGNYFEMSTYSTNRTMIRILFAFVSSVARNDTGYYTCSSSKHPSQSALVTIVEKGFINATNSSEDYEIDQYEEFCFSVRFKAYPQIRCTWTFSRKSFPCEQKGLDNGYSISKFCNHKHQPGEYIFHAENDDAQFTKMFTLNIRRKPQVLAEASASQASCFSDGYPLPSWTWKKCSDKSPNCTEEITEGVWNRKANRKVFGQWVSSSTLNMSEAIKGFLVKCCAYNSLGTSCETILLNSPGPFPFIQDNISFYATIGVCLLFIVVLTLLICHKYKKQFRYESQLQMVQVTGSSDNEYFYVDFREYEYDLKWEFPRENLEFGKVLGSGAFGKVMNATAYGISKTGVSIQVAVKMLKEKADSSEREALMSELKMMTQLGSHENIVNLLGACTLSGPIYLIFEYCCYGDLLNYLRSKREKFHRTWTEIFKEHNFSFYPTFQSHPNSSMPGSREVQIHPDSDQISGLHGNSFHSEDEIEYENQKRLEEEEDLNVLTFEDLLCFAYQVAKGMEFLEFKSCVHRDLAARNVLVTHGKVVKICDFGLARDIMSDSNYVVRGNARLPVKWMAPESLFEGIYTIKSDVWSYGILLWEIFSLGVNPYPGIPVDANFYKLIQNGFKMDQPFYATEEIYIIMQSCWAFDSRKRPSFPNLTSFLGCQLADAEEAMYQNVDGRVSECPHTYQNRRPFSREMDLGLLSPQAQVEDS

Chain of BDNF/NT-3 growth factors receptor (Homo sapiens) (Q16620 32-822 limits assumed): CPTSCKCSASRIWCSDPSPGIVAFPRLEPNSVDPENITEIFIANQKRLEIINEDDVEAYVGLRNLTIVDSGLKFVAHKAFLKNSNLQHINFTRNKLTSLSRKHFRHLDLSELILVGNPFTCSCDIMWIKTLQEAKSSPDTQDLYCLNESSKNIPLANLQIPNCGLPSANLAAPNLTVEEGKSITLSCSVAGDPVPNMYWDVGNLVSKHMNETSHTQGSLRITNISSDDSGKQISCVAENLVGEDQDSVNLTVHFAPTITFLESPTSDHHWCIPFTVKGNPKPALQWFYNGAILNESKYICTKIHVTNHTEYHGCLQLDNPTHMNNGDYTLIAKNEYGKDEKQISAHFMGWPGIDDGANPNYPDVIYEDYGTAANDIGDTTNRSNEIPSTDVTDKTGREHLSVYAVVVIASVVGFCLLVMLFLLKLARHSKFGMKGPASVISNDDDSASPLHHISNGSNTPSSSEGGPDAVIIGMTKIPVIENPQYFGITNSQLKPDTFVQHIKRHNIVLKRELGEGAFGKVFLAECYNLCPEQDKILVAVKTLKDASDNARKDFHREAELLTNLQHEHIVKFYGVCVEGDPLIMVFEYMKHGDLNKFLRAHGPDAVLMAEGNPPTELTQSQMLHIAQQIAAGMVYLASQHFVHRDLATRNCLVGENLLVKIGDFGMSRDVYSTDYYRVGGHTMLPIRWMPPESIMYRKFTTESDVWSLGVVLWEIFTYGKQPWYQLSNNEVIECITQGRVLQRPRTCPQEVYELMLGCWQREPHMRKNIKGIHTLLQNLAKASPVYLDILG
Chain of Tyrosine-protein kinase Fyn (Homo sapiens) (P06241 2-537 limits assumed): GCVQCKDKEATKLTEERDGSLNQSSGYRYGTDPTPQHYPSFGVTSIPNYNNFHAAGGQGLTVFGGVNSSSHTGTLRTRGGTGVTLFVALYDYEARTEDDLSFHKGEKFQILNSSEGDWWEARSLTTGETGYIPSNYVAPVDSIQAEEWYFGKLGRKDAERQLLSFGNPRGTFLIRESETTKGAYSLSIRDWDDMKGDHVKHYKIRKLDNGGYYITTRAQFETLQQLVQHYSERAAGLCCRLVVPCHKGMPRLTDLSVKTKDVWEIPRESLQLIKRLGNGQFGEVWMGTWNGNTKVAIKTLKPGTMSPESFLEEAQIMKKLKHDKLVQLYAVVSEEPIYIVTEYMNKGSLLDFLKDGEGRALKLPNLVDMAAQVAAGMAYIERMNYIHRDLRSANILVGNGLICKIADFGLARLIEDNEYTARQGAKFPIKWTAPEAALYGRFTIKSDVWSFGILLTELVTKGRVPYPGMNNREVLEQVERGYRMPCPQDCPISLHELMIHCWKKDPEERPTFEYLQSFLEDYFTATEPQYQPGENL

As to `CCNc1cc(O)c2c(c1)/C=C/C[C@H](O)[C@H](O)C(=O)/C=C\[C@@H](C)[C@H](C)OC2=O` [E-6201], the Activity was determined as 0% in test [1], 24% in test [2], 1% in [8] and 6% in [11]. Moreover, the IC50 in test [3] is 1590 nM; in [4], above 7050 nM; in test [5], above 10000 nM; in [6], 282 nM; in test [7] it was 66 nM; in test [9], 1650 nM. For the same compound, in test [10], the IC50 came to 7490 nM.
